Experimental findings from patent publication US6730792B2, “β3 adrenergic agonists” (Eli Lilly and Company, priority 2000, dated 2004) are described below.

This experiment addresses T1, human β3 adrenergic receptor (Homo sapiens, UniProt P13945).
T1 construct: expressed in transfected cells; host or cells: DXB-11 Chinese hamster ovary (CHO) cell line, stably transfected (phd expression vector)
Kind of experiment: whole cell receptor coupled c-AMP assay, human β3 receptor in CHO cells (EC50, Emax relative to isoproterenol). The format is cell-based. The conditions noted are these: Emax ± standard error of the mean; average of at least 3 runs except where n = 1; compound tested in the isolated form listed. An outline of the steps:
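Stably transfected DXB-11 CHO cells (20,000/well) were exposed to compound for 20 min at 37 °C in HBSS/HEPES buffer with 1 mM IBMX, pH 7.4. cAMP was measured by SPA. EC50 came from a four-parameter logistic fit, and Emax is the maximal response as a percentage of isoproterenol's.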

T1 sequence (P13945 whole entry): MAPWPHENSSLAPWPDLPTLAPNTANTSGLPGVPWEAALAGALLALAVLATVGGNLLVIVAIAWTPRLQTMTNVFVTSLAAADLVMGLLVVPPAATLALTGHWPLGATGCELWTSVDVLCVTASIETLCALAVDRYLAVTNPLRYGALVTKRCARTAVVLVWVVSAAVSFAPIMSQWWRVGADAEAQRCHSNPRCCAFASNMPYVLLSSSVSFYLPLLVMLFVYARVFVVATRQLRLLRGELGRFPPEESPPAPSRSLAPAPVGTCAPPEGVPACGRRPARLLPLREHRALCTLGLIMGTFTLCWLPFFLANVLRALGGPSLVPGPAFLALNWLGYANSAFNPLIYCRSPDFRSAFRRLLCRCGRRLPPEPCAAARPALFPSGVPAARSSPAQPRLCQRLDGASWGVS

As for `CC(C)(Cc1ccc(Oc2ccc(Cl)nn2)cc1)NC[C@H](O)COc1ccccc1-c1ccno1.O=C(O)C(F)(F)F` [Example 210], the “Emax (%) ± SEM” value is 89.1 ± 2.7%.
With `CC(C)(Cc1ccc(Oc2ccc(Cl)nn2)cc1)NC[C@H](O)COc1ccccc1-c1ccns1.O=C(O)C(F)(F)F` [Example 211] the figure was 88.5 ± 9.3%; with `CC(C)(Cc1ccc(Oc2ccccc2C#N)cc1)NC[C@H](O)COc1ccccc1-c1ccno1.O=C(O)C(F)(F)F` [Example 212], 68.9 ± 3.1%.
With `CC(C)(Cc1ccc(Oc2ccccc2C#N)cc1)NC[C@H](O)COc1ccccc1-c1ccns1.O=C(O)C(F)(F)F` [Example 213] the figure was 63.0 ± 3.2%; with `CC(C)(Cc1ccc(Oc2ccccc2C#N)cc1)NC[C@H](O)COc1ccc(F)cc1-c1cccs1.O=C(O)C(F)(F)F` [Example 214], 42.4 ± 9.4%.
Take `CC(C)(Cc1ccc(Oc2cccc(Cl)c2C#N)cc1)NC[C@H](O)COc1ccccc1-c1cccs1.O=C(O)C(F)(F)F` [Example 216]: the “Emax (%) ± SEM” value is 85.4 ± 4.9%.
With `CC(C)(Cc1ccc(Oc2cccc(Cl)c2C#N)cc1)NC[C@H](O)COc1ccccc1-c1ccno1.O=C(O)C(F)(F)F` [Example 217] the figure was 76.2 ± 8.3%; with `CC(C)(Cc1ccc(Oc2cccc(Cl)c2C(N)=O)cc1)NC[C@H](O)COc1ccccc1-c1cccs1.O=C(O)C(F)(F)F` [Example 218], 76.5 ± 1.7%; with `CC(C)(Cc1ccc(Oc2cccc(Cl)c2C(N)=O)cc1)NC[C@H](O)COc1ccccc1-c1ccno1.O=C(O)C(F)(F)F` [Example 219], 50.4 ± 6.3%.
With `CC(C)(Cc1ccc(Oc2ccc(C#N)nc2)cc1)NC[C@H](O)COc1ccccc1-c1cccs1.O=C(O)C(F)(F)F` [Example 220] the figure was 56.0 ± 2.9%.
For the molecule `CC(C)(Cc1ccc(Oc2ccc(C#N)nc2)cc1)NC[C@H](O)COc1ccccc1-c1ccno1.O=C(O)C(F)(F)F` [Example 221], the “Emax (%) ± SEM” value was 40.8 ± 8.3%.
The same measure for `CCOC(=O)c1ccc(Oc2ccc(CC(C)(C)NC[C@H](O)COc3ccccc3-c3nccs3)cc2)c(Cl)c1.O=C(O)C(F)(F)F` [Example 222]: 59.0 ± 10.0%; for `CC(C)(Cc1ccc(Oc2ccc(S(C)(=O)=O)cc2F)cc1)NC[C@H](O)COc1ccccc1-c1cccs1.O=C(O)C(F)(F)F` [Example 223]: 63.7 ± 3.1%.
With `CC(C)(Cc1ccc(Oc2ccc(S(C)(=O)=O)cc2F)cc1)NC[C@H](O)COc1ccccc1-c1nccs1.O=C(O)C(F)(F)F` [Example 224] the figure was 37.0 ± 0.3%; with `CC(C)(Cc1ccc(Oc2ccc(S(N)(=O)=O)cc2F)cc1)NC[C@H](O)COc1ccccc1-c1cccs1.O=C(O)C(F)(F)F` [Example 225], 59.5 ± 4.3%.
With `CC(C)(Cc1ccc(Oc2ccc(S(N)(=O)=O)cc2F)cc1)NC[C@H](O)COc1ccccc1-c1nccs1.O=C(O)C(F)(F)F` [Example 226] the figure was 37.8 ± 9.2%; with `CC(C)(Cc1ccc(Oc2ccccc2C(N)=O)cc1)NC[C@H](O)COc1ccc(F)cc1-c1cccs1.O=C(O)C(F)(F)F` [Example 227], 51.3 ± 10.8%.
Regarding `CC(C)(Cc1ccc(Oc2ccccc2C(N)=O)cc1)NC[C@H](O)COc1cccc(F)c1-c1cccs1.O=C(O)C(F)(F)F` [Example 228], the “Emax (%) ± SEM” value is given as 28.9 ± 3.4%.
With `CC(C)(Cc1ccc(Oc2ncccc2C#N)cc1)NC[C@H](O)COc1ccccc1-c1cscn1.Cl` [Example 239] the figure was 49.8 ± 4.5%.
With `CC(C)(Cc1ccc(Oc2ncccc2C(N)=O)cc1)NC[C@H](O)COc1ccccc1-c1cscn1.Cl` [Example 240] the figure was 65.7 ± 3.8%; with `CC(C)(Cc1ccc(Oc2cccnc2C#N)cc1)NC[C@H](O)COc1ccccc1-c1cscn1.Cl` [Example 241], 47.0 ± 2.5%; with `CC(C)(Cc1ccc(Oc2cccnc2C(N)=O)cc1)NC[C@H](O)COc1ccccc1-c1cscn1.Cl` [Example 242], 55.9 ± 4.0%.
The same measure for `CC(C)(Cc1ccc(Oc2ccccc2C#N)cc1)NC[C@H](O)COc1ccccc1-c1cscn1.Cl` [Example 243]: 47.9 ± 3.5%.
`CC(C)(Cc1ccc(Oc2ccccc2C(N)=O)cc1)NC[C@H](O)COc1ccccc1-c1cscn1.Cl` [Example 244]: the “Emax (%) ± SEM” value worked out at 66.6 ± 5.7%.
The same measure for `CC(C)(Cc1ccc(Oc2cccc(Cl)c2C#N)cc1)NC[C@H](O)COc1ccccc1-c1cscn1.Cl` [Example 245]: 56.1 ± 2.9%; for `CC(C)(Cc1ccc(Oc2cccc(Cl)c2C(N)=O)cc1)NC[C@H](O)COc1ccccc1-c1cscn1.Cl` [Example 246]: 52.1 ± 2.4%; for `CC(C)(Cc1ccc(Oc2ccc(C#N)cn2)cc1)NC[C@H](O)COc1ccccc1-c1cscn1.Cl` [Example 247]: 45.4 ± 3.4%.
Regarding `CC(C)(Cc1ccc(Oc2ccc(C(N)=O)cn2)cc1)NC[C@H](O)COc1ccccc1-c1cscn1.Cl` [Example 248], the “Emax (%) ± SEM” value was 47.5 ± 4.8%.
Consider `CC(C)(Cc1ccc(Oc2ccc(S(C)(=O)=O)cc2)cc1)NC[C@H](O)COc1ccccc1-c1cscn1.Cl` [Example 249], for which the “Emax (%) ± SEM” value is listed as 35.9 ± 2.9%.
The same measure for `CC(C)(Cc1ccc(Oc2ccc(S(C)(=O)=O)cc2F)cc1)NC[C@H](O)COc1ccccc1-c1cscn1.Cl` [Example 250]: 31.6 ± 3.1%; for `CC(C)(Cc1ccc(Oc2ccc(S(N)(=O)=O)cc2F)cc1)NC[C@H](O)COc1ccccc1-c1cscn1.Cl` [Example 251]: 33.4 ± 5.7%.
With `CC(C)(Cc1ccc(Oc2ccc(C(N)=O)cc2F)cc1)NC[C@H](O)COc1ccccc1-c1cscn1.Cl` [Example 252] the figure was 38.4 ± 3.8%.
With `CC(C)(Cc1ccc(Oc2ccc(C(N)=O)cc2Cl)cc1)NC[C@H](O)COc1ccccc1-c1cscn1.Cl` [Example 253] the figure was 37.6 ± 2.7%; with `CC(C)(Cc1ccc(Oc2ncc(C(F)(F)F)cc2Cl)cc1)NC[C@H](O)COc1ccccc1-c1cscn1.Cl` [Example 254], 50.5 ± 0.8%; with `CC(C)(Cc1ccc(Oc2cnccn2)cc1)NC[C@H](O)COc1ccccc1-c1cscn1.Cl` [Example 256], 50.6 ± 1.8%.
As to `CC(C)(Cc1ccc(Oc2ncccn2)cc1)NC[C@H](O)COc1ccccc1-c1cscn1.Cl` [Example 257], the “Emax (%) ± SEM” value was 49.9 ± 3.4%.
Turning to `CC(C)(Cc1ccc(Oc2ccc(C#N)s2)cc1)NC[C@H](O)COc1ccccc1-c1cscn1.Cl` [Example 258], the “Emax (%) ± SEM” value is given as 48.4 ± 5.6%.
With `CC(C)(Cc1ccc(Oc2ccc(C(N)=O)s2)cc1)NC[C@H](O)COc1ccccc1-c1cscn1.Cl` [Example 259] the figure was 54.1 ± 3.9%; with `CC(C)(Cc1ccc(Oc2ccc(C#N)o2)cc1)NC[C@H](O)COc1ccccc1-c1cscn1.Cl` [Example 260], 38.2 ± 2.0%; with `CC(C)(Cc1ccc(Oc2ccc(C(N)=O)o2)cc1)NC[C@H](O)COc1ccccc1-c1cscn1.Cl` [Example 261], 52.3 ± 6.6%.
The same measure for `Cc1nc(-c2ccccc2OC[C@@H](O)CNC(C)(C)Cc2ccc(Oc3ncccc3C(N)=O)cc2)[nH]c1C.Cl.Cl` [Example 262]: 63.6 ± 4.3%; for `CC(C)(Cc1ccc(Oc2ccc(S(C)(=O)=O)cc2)cc1)NC[C@H](O)COc1ccccc1-n1cccc1.Cl` [Example 265]: 42.7 ± 9.4%.
With `CC(C)(Cc1ccc(Oc2ccc(C(N)=O)nc2)cc1)NC[C@H](O)COc1ccccc1-n1cccc1.Cl` [Example 266] the figure was 36.7 ± 6.8%.
Consider `CC(C)(Cc1ccc(Oc2cccnc2C#N)cc1)NC[C@H](O)COc1ccccc1-n1cccc1.Cl` [Example 268], for which the “Emax (%) ± SEM” value is on record as 54.6 ± 8.2%.
In the case of `CC(C)(Cc1ccc(Oc2ccc(C(N)=O)cc2)cc1)NC[C@H](O)COc1ccccc1-n1cccc1.Cl` [Example 269], the “Emax (%) ± SEM” value is listed as 41.3 ± 4.2%.
Take `CC(C)(Cc1ccc(Oc2ccccc2C(N)=O)cc1)NC[C@H](O)COc1ccccc1-n1cccc1.Cl` [Example 270]: the “Emax (%) ± SEM” value is reported as 56.4 ± 8.3%.
As for `CC(C)(Cc1ccc(Oc2ncccc2C(N)=O)cc1)NC[C@H](O)COc1ccccc1-n1ccc(C#N)c1.Cl` [Example 271], the “Emax (%) ± SEM” value amounted to 39.0 ± 0.6%.
The same measure for `CC(C)(Cc1ccc(Oc2ccc(C(N)=O)cn2)cc1)NC[C@H](O)COc1ccccc1-n1ccc(C#N)c1.Cl` [Example 272]: 35.7 ± 2.8%; for `CC(C)(Cc1ccc(Oc2ncccc2C(N)=O)cc1)NC[C@H](O)COc1ccccc1-n1ccc(C=O)c1` [Example 273]: 40.3 ± 0.5%; for `CC(C)(Cc1ccc(Oc2ccc(C(N)=O)cn2)cc1)NC[C@H](O)COc1ccccc1-n1ccc(C=O)c1` [Example 274]: 38.8 ± 1.4%.
With `CC(C)(Cc1ccc(Oc2ccc(C#N)cn2)cc1)NC[C@H](O)COc1ccccc1-c1cccs1.O=C(O)C(=O)O` [Example 285] the figure was 24.6 ± 3.8%.
The same measure for `CC(C)(Cc1ccc(Oc2ccccc2C#N)cc1)NC[C@H](O)COc1ccccc1-c1cccs1.O=C(O)C(F)(F)F` [Example 286]: 72.1 ± 4.5%; for `CC(C)(Cc1ccc(Oc2ccncc2)cc1)NC[C@H](O)COc1ccccc1-c1ccno1.O=C(O)C(F)(F)F` [Example 287]: 39.9 ± 4.9%; for `CCOC(=O)c1ccc(Oc2ccc(CC(C)(C)NC[C@H](O)COc3ccccc3-c3ccno3)cc2)c(Cl)c1.O=C(O)C(F)(F)F` [Example 288]: 52.9 ± 7.4%.
On to `CC(C)(Cc1ccc(-c2ccccc2C#N)cc1)NC[C@H](O)COc1ccccc1-c1ccno1.O=C(O)C(=O)O` [Example 289], for which the “Emax (%) ± SEM” value is 37.4 ± 7.2%.
